Data taken from EP0470323A2, “New salts of the nicotinic acid with aminobenzylic compounds and their pharmaceutical use” (BROMLEY LIMITED, priority 1990, dated 1992).

Assays:
[1] = test system: Thyphirium salmonella strains (TA 98, TA 100, TA 1535, and TA 1538); format: cell-based
Excerpt: (§1) The compound according to the Example 1 has been tested, in order to check and see its mutagenic effects.

[2] = test system: pl strain of Schiosaccharomyces Pombe; assay: Frequency of mutations in yeast, with and without microsomal fraction; format: cell-based; details: tested dosages, with and without microsmial fraction
Excerpt: as §1

[3] = test system: five strains of Typhumurium Salmonella; assay: Mutagenic action of urines of intragastrically treated rats on Salmonella; format: cell-based; details: urines of rats treated intragastrically with two doses, with metabolic activation, beta-glucoronidase absent
Schiosaccharomyces Pombe = assay: Mutagenic action of urines of intragastrically treated rats on yeast; format: cell-based; details: urines of rats treated intragastrically with two doses, with metabolic activation, beta-glucoronidase absent
[4] = test system: hypertrigliceridaemia from olive oil in the rats; assay: Hypertriglyceridaemia from olive oil in the rat (serum lactescence); format: in vivo
Experimental: The method described by Zucker I.H. (Sci. Anal. Lab. 24, 114, 1972) has been followed.
Male rats have been used, whose body weight was 150-200 g. The animals were without eating with water "ad libitum" and all this beginning 24 hours before the experiment. The hyperlipaemia was induced by the administration of olive oil by mouth; its composition as to the fat acids was as follows: palmitic acid 10% palmitoleic acid 1%, stearic acid 3%, […] and linoleic acid 7% (all percentages are by weight). The quantity of olive oil administered, by means of a gastric probe, was 10 ml/kg. The treatments were made by finely pounding with a china mortar and by suspending in the olive oil the examined compounds. […] The positive control animals received only olive oil; moreover, there was also a group of negative control animals who received plain water in quantities of 10 ml/kg. Every three hours a group of rats (10) was killed in a light ethereal anaesthesia, in order to be able to appreciate the percentage of triglycerides in the blood. The animals were bled by cutting them the carotids and the blood was collected in plastic test-tubes, capacity 10 ml each, and was centrifuged for ten minutes at 3500 rpm. The evaluated parameter was the lactescence of the serum, which is directly proportional to the contents of kilomicrons and therefore of triglycerides (Zucker, see above the mention). The serum has been diluted 1:5 in a physiologic solution and was read at the spectrophotometer at […] against white (physiologic solution). From the individual optical Density (D.O.) data one could calculate for each group the average of the standard error. The statistical analysis was performed by means of the t of Dunnett.

[5] = test system: Hypertriglyceridaemia caused by ethanole in the rats; assay: Hypertriglyceridaemia caused by ethanol in rats, activity at three dose levels; format: in vivo; details: rat; for Triglycerids M ± E.S.: 4 hours after last treatment; for Triglycerids % vs contr. positivi: 4 hours after treatment
Excerpt: (§2) For this test group the methods described by Sistori C.R. and colleagues (Atherosclerosis 30, 45; 1978) is followed.
(§3) The hypertriglyceridaemia has been induced into the male rats having a body weight of 160 - 170 g by giving them to drink, for 4 consecutive days, a solution of 10% ethanole in water.

[6] = test system: Hypertriglyceridaemia caused by ethanole in the rats; assay: Hypertriglyceridaemia caused by ethanol in rats, duration of the effects; format: in vivo; details: rat, dose 1 mM/kg/os
Excerpt: as §2, §3
In order to perform the particular kinetics of the compound in accordance with the example 1 following the instant invention, it was considered appropriate, anyway, to evaluate the duration of the hypolipaemizing effect in comparison to that of the nicotinic acid.
A group of normal animals was treated with the vehicle only and did serve as a negative control group.

red cells in the rat = assay: Red cell deformability / filtration, Schmidt-Schönbein method; format: in vivo; details: dose 3 x 0,5 mM/kg/os, listed as Compound as Ex. 1
Excerpt: steresis (Teiltel P.: Nouv. Rev. Franç. Hématol. 7, 195, 1967). Any alteration, almost undoubtely at the level of the red cell's membrane, cause some damaging variations of the red cell's elasticity thus making more difficult the passing through the capillary vessels having more reduced diameter, and therefore increasing the flow resistance in the peripheral vessels systems. In order to determine the effect caused by the compound according to the Example 1, on these features of the red cell, the method described by Schmidt, Schonbein and colleagues (Blut 26, 369, 1973) has been used.
In the circulatory flow, the above mentioned capillary vessels being excluded, the blood cells do normally circulate being attached between each other because of their adhesiveness. In order to study this adhesion force, the above mentioned Teitel method has been used. Male rats of 150 g body weight approximately have been employed, and they have been treated for three consecutive days with 0,5 mM/kg/os of the compound according to the Example 1, or otherwise Buflomedil, or even Pentosiphillin used as comparison substance. After the last treatment the animals, without eating from 18 hours, have been killed in a light ethereal anaesthesy and the blood was collected over an 0,2 molar EDTA (9 and 1 volumes respectively). The red cells filtering possibility, measured with the Teitel method, wherein the quantity of red cells passing, in high haematocritical conditions, through a paper filter with holes of 20-40 µm in a previously determined time, has been ascertained as follows: the blood was centrifuged for ten minutes at 2000 rpm in order to obtain the massing of the red cells, two ml of the blood collected as above were put into an upside down turned cone made with filtering paper, being previously wetted with a physiological solution. The volume passing through the filter in 2 - 4 - 8 and 16 minutes is then measured. […]

COc1cc(OC)c(C(=O)CCCN2CCCC2)c(OC)c1 [Example 1, 4-(1 pyrrholydinyl)-1-(2,4,6 trimethoxypheniyl)-1-nicotinized butanone]
mutagenic activity [1]: did not show any mutagenic activity
frequency of mutations [2]: did not increase
mutagenic action [3]: any mutagenic action did not result
mutagenic action (Schiosaccharomyces Pombe): any mutagenic action did not result
Serum opt.density at the indicated times (M ± E.S.) ([4]; dose 1 mM/kg/os, 3 h): 247 ± 15,3
Serum opt.density at the indicated times (M ± E.S.) ([4]; dose 1 mM/kg/os, 6 h): 1121 ± 51,6
Serum opt.density at the indicated times (M ± E.S.) ([4]; dose 1 mM/kg/os, 9 h): 987 ± 36,7
Serum opt.density at the indicated times (M ± E.S.) ([4]; dose 1 mM/kg/os, 12 h): 724 ± 28,4
Serum opt.density at the indicated times (M ± E.S.) ([4]; dose 1 mM/kg/os, 15 h): 458 ± 21,3
Serum opt.density at the indicated times (M ± E.S.) ([4]; dose 1 mM/kg/os, 18 h): 229 ± 22,6
Serum opt.density at the indicated times (M ± E.S.) ([4]; dose 2 mM/kg/os, 3 h): 271 ± 15,9
Serum opt.density at the indicated times (M ± E.S.) ([4]; dose 2 mM/kg/os, 6 h): 856 ± 44,2
Serum opt.density at the indicated times (M ± E.S.) ([4]; dose 2 mM/kg/os, 9 h): 624 ± 27,4
Serum opt.density at the indicated times (M ± E.S.) ([4]; dose 2 mM/kg/os, 12 h): 451 ± 26,2
Serum opt.density at the indicated times (M ± E.S.) ([4]; dose 2 mM/kg/os, 15 h): 294 ± 26,2
Serum opt.density at the indicated times (M ± E.S.) ([4]; dose 2 mM/kg/os, 18 h): 212 ± 28,3
Serum opt.density at the indicated times (M ± E.S.) ([4]; dose 4 mM/kg/os, 3 h): 260 ± 17,1
Serum opt.density at the indicated times (M ± E.S.) ([4]; dose 4 mM/kg/os, 6 h): 720 ± 43,8
Serum opt.density at the indicated times (M ± E.S.) ([4]; dose 4 mM/kg/os, 9 h): 612 ± 21,2
Serum opt.density at the indicated times (M ± E.S.) ([4]; dose 4 mM/kg/os, 12 h): 400 ± 28,3
Serum opt.density at the indicated times (M ± E.S.) ([4]; dose 4 mM/kg/os, 15 h): 226 ± 25,6
Serum opt.density at the indicated times (M ± E.S.) ([4]; dose 4 mM/kg/os, 18 h): 184 ± 16,2
Triglycerids M ± E.S. ([5]; dose 0,5 mM/kg/os once a day for 4 days): 148,2 ± 16,4 mg/100 ml
Triglycerids % vs contr. positivi ([5]; dose 0,5 mM/kg/os): -26,8%
Triglycerids M ± E.S. ([5]; dose 1,0 mM/kg/os once a day for 4 days): 135,0 ± 12,6 mg/100 ml
Triglycerids % vs contr. positivi ([5]; dose 1,0 mM/kg/os): -33,6%
Triglycerids M ± E.S. ([5]; dose 2,0 mM/kg/os once a day for 4 days): 112,6 ± 14,3 mg/100 ml
Triglycerids % vs contr. positivi ([5]; dose 2,0 mM/kg/os): -44,4%
decrease (of triglycerides vs positive controls) ([5]; dose of 0,4 mM/kg): 26,8%
decrease (of triglycerides vs positive controls) ([5]; dose of 1 mM/kg per os): 33,3%
decrease (of triglycerides vs positive controls) ([5]; dose of 2 mM/kg): 44,4%
% variation vs positive controls (Trigliceridi) ([6]; 4 h): -38,2%
Trigliceridi ([6]; 4 h from the last treatment): 158,9 ± 11,6 mg/100 ml
% variation vs positive controls (Trigliceridi) ([6]; 6 h): -42,6%
Trigliceridi ([6]; 6 h from the last treatment): 135,6 ± 10,9 mg/100 ml
% variation vs positive controls (Trigliceridi) ([6]; 12 h): -31,5%
Trigliceridi ([6]; 12 h from the last treatment): 141,0 ± 21,1 mg/100 ml
% variation vs positive controls (Trigliceridi) ([6]; 16 h): -22,1%
Trigliceridi ([6]; 16 h from the last treatment): 145,3 ± 12,7 mg/100 ml
% variation vs positive controls (Trigliceridi) ([6]; 24 h): -9,2%
Trigliceridi ([6]; 24 h from the last treatment): 150,1 ± 8,4 mg/100 ml
Schmidt-Schönbein method Δ % vs contr. (red cells in the rat): 46,2%
